Patent publication US7087622B2, “Pyridone compounds as inhibitors of bacterial type III protein secreation systems” (priority 2004, dated 2006)

Tests used:
[1] = tested on: SPI1 type III protein secretion system (SopE-Bla secretion); test: Primary assay: Type III protein secretion of the chimeric SopE-Bla polypeptide by Salmonella enterica (nitrocefin hydrolysis); assay type: cell-based; conditions: read-out: SopE IC50(uM)
Text: Primary assay: Type III protein secretion of the chimeric SopÉ-Bla polypeptide by Salmonella enterica. This procedure is a cell-based assay that measures the type III-dependent secretion by Salmonella enterica of a plasmid-encoded chimeric polypeptide whose synthesis can be regulated, and which is endowed with an enzymatic activity that can be monitored calorimetrically by hydrolysis of a substrate that is unable to penetrate into the bacterial cytoplasm within the time constraints of the reaction. Thus, the colorimetric reaction is not influenced by SopÉ-Bla polypeptide in the bacterial cytoplasm. Instead, it effectively measures the amount of polypeptide that has been secreted from the S. enterica cytoplasm to the extracellular medium via type III system protein secretion.
The SopÉ-Bla recombinant polypeptide consists of two functionally distinct domains spliced together. The N-terminus domain is encoded by a polynucleotide region specifying the signal for type III secretion of the SopE polypeptide of S. enterica, an effector of the SPI1 type III protein secretion system. The C-terminus domain of SopÉ-Bla consists of a 263 amino acid peptide sequence that corresponds to the TEM-1 β-lactamase expressed by plasmid pBR322 but without its N-terminal signal sequence. The TEM-1 β-lactamase part of the SopÉ-Bla chimeric polypeptide is used as a reporter enzyme. It is capable of hydrolyzing nitrocefin resulting in a product whose accumulation can be monitored by colorimetric detection. The secretion of the SopÉ-Bla chimeric polypeptide from the cytoplasm to the extracellular medium is dependent on type III protein secretion.
For this procedure, cells grown under conditions known to favor a functional SPI1 secretion system are induced for expression of the SopÉ-Bla protein and grown either in the presence or in the absence of putative inhibitors for determined time. Nitrocefin is then added to the various cultures and its hydrolysis are used for quantitation. An inhibitor of Type III protein secretion is generally a compound that reduces the signal of the enzymatic reaction by decreasing the amount of SopÉ-Bla secreted into the extracellular medium.

[2] = tested on: SPI1 type III protein secretion system (SipB secretion); test: Secondary assay: Type III-dependent protein secretion of the SipB polypeptide by S. enterica (immunoblot); assay type: cell-based; conditions: Salmonella enterica, read-out: SipB IC50(uM)
Experimental: Secondary assay: Type III-dependent protein secretion of the SipB polypeptide by S. enterica. The SipB protein of S. enterica is another effector of the SPI1 type III protein secretion system from S. enterica. In this cell-based procedure, the Type III-dependent secretion of SipB from the bacterial cytoplasm to the extracellular medium was measured through its reactivity with a cognate mouse monoclonal.
Salmonella enterica cells growing either in the presence or in the absence of inhibitors are induced for the production of SipB. Following an established period of growth the cells are sedimented and the amount of SipB present in the supernatant is quantified with a scanning imager following application of immunoblot techniques. Detection may employ an anti-SipB mouse monoclonal antibody (e.g., obtained from Jorge Galan, SUNY at Stony Brook, N.Y.) followed by treatment with commercially available sheep anti-mouse polyclonal antibody conjugated with horseradish peroxidase. Thereafter the membrane is treated with a peroxidase chemiluminescent substrate and exposed to film for an appropriate exposure time. Inhibition may be measured relative to untreated controls.

`O=C(Nc1cc(-c2ccc(C(F)(F)F)cc2)cn(C(Cc2ccc(Cl)cc2)C(=O)O)c1=O)c1ccc(Oc2ccccc2)cc1` (stereo not shown) [Compound 54, 3-(4-Chlorophenyl)-2-[2-oxo-3-(4-phenoxybenzoylamino)-5-(4-trifluoromethyl-phenyl)-2H-pyridin-1-yl]propionic acid] showed an IC50 [1] of 16.6 µM and an IC50 [2] of over 100 µM.
With `O=C(Nc1cc(-c2ccc(-c3ccccc3)cc2)cn(C(Cc2ccc(Cl)cc2)C(=O)O)c1=O)c1ccc(C(F)(F)F)cc1` (stereo not shown) [Compound 17, 2-[5-Biphenyl-4-yl-2-oxo-3-(4-trifluoromethylbenzoylamino)-2H-pyridin-1-yl]-3-(4-chlorophenyl)propionic acid] the IC50 [1] was 2 µM and the IC50 [2] was over 100 µM.
In the case of `O=C(Nc1cc(-c2ccc3ccccc3c2)cn([C@@H](COCc2ccccc2)C(=O)O)c1=O)c1ccc(C(F)(F)F)cc1` [Compound 13, (S)-3-Benzyloxy-2-[5-naphthalen-2-yl-2-oxo-3-(4-trifluoromethylbenzoylamino)-2H-pyridin-1-yl]propionic acid], the IC50 [1] is reported as 48 µM and the IC50 [2] is reported as over 100 µM.
With `CN(C)c1ccc(-c2cc(NC(=O)c3ccc(C(F)(F)F)cc3)c(=O)n([C@@H](COCc3ccccc3)C(=O)O)c2)cc1` [Compound 11, (S)-3-Benzyloxy-2-[5-(4-dimethylaminophenyl)-2-oxo-3-(4-trifluoromethyl-benzoylamino)-2H-pyridin-1-yl]propionic acid] the IC50 [1] was 76 µM and the IC50 [2] was over 100 µM.
`O=C(Nc1cc(-c2ccc(Cl)cc2)cn(C(Cc2ccc(Cl)cc2)C(=O)O)c1=O)c1ccc(Oc2ccccc2)cc1` (stereo not shown) [Compound 52, 3-(4-Chlorophenyl)-2-[5-(4-chlorophenyl)-2-oxo-3-(4-phenoxybenzoylamino)-2H-pyridin 1-yl]propionic acid] was tested, and the IC50 [1] was 9 µM and the IC50 [2] was over 100 µM.
`O=C(Nc1cc(-c2cccc3ccccc23)cn(C(CSCc2ccccc2)C(=O)O)c1=O)c1ccc(C(F)(F)F)cc1` (stereo in doubt) [Compound 16, (R)-3-Benzylsulfanyl-2-[5-naphthalen-1-yl-2-oxo-3-(4-trifluoromethyl-benzoylamino)-2H-pyridin-1-yl]propionic acid] was tested, and the IC50 [1] was 6.4 µM and the IC50 [2] was over 100 µM.
`O=C(Nc1cc(-c2cccc(C(F)(F)F)c2)cn(C(Cc2ccc(Cl)cc2)C(=O)O)c1=O)c1ccc(Oc2ccccc2)cc1` (stereo not shown) [Compound 23, 3-(4-Chlorophenyl)-2-[2-oxo-3-(4-phenoxybenzoylamino)-5-(3-trifluoromethyl-phenyl)-2H-pyridin-1-yl]propionic acid] was tested, and the IC50 [1] was 9.8 µM and the IC50 [2] was over 100 µM.
Work on `CC(=O)Nc1cccc(-c2cc(NC(=O)c3ccc(C(F)(F)F)cc3)c(=O)n(C(Cc3ccc(Cl)cc3)C(=O)O)c2)c1` (stereo not shown) [Compound 28, 2-[5-(3-Acetylaminophenyl)-2-oxo-3-(4-trifluoromethylbenzoylamino)-2H-pyridin-1-yl]-3-(4-chlorophenyl)propionic acid] yielded an IC50 [1] of 52.4 µM and an IC50 [2] of over 100 µM.
Compound `CC(=O)c1ccc(-c2cc(NC(=O)c3ccc(C(F)(F)F)cc3)c(=O)n(C(Cc3ccc(Cl)cc3)C(=O)O)c2)s1` (stereo not shown) [Compound 27, 2-[5-(5-Acetylthiophen-2-yl)-2-oxo-3-(4-trifluoromethylbenzoylamino)-2H-pyridin-1-yl]-3-(4-chlorophenyl)propionic acid] has an IC50 [1] of 34.2 µM and an IC50 [2] of over 100 µM.
Compound `O=C(Nc1cc(-c2cncnc2)cn([C@@H](Cc2ccccc2)C(=O)O)c1=O)c1ccc(C(F)(F)F)cc1` [Compound 7, (S)-2-[2-Oxo-5-pyrimidin-5-yl-3-(4-trifluoromethylbenzoylamino)-2H-pyridin-1-yl]-3-phenylpropionic acid] has an IC50 [1] of 82.3 µM and an IC50 [2] of over 100 µM.
`O=C(Nc1cc(-c2ccccc2)cn(C(Cc2ccc(Cl)cc2)C(=O)O)c1=O)c1ccc(-c2ccccc2)cc1` (stereo not shown) [Compound 32, 2-{3-[(Biphenyl-4-carbonyl)amino]-2-oxo-5-phenyl-2H-pyridin-1-yl}-3-(4-chloro-phenyl)propionic acid] was tested, and the IC50 [1] was 2.3 µM and the IC50 [2] was over 100 µM.
With `O=C(Nc1cc(-c2cc3ccccc3o2)cn(C(Cc2ccc(Cl)cc2)C(=O)O)c1=O)c1ccc(C(F)(F)F)cc1` (stereo not shown) [Compound 25, 2-[5-Benzofuran-2-yl-2-oxo-3-(4-trifluoromethylbenzoylamino)-2H-pyridin-1-yl]-3-(4-chlorophenyl)propionic acid] the IC50 [1] was 3.7 µM and the IC50 [2] was over 100 µM.
`O=C(Nc1cc(C#Cc2ccccc2)cn(C(Cc2ccc(Cl)cc2)C(=O)O)c1=O)c1ccc(C(F)(F)F)cc1` (stereo not shown) [Compound 31, 3-(4-Chlorophenyl)-2-[2-oxo-5-phenylethynyl-3-(4-trifluoromethylbenzoylamino)-2H-pyridin-1-yl]propionic acid] gave an IC50 [1] of 34.2 µM and an IC50 [2] of over 100 µM.
`O=C(Nc1cc(-c2cccc3ccccc23)cn(C(Cc2ccc(Cl)cc2)C(=O)O)c1=O)c1ccc(-c2ccccc2)cc1` (stereo not shown) [Compound 46, 2-{3-[(Biphenyl-4-carbonyl)amino]-5-naphthalen-1-yl-2-oxo-2H-pyridin-1-yl}-3-(4-chlorophenyl)propionic acid] gave an IC50 [1] of 1.1 µM and an IC50 [2] of over 100 µM.
`O=C(Nc1cc(-c2cc(F)cc(F)c2)cn(C(Cc2ccc(Cl)cc2)C(=O)O)c1=O)c1ccc(-c2ccccc2)cc1` (stereo not shown) [Compound 36, [3-[(Biphenyl-4-carbonyl)amino]-5-(3,5-difluorophenyl)-2-oxo-2H-pyridin-1-yl]-3-(4-chlorophenyl)propionic acid] was tested, and the IC50 [1] was 2.4 µM and the IC50 [2] was over 100 µM.
With `O=C(Nc1cc(-c2ccc3ccccc3c2)cn([C@@H](Cc2ccccc2)C(=O)O)c1=O)c1ccc(C(F)(F)F)cc1` [Compound 3, (S)-2-[5-Naphthalen-2-yl-2-oxo-3-(4-trifluoromethylbenzoylamino)-2H-pyridin-1-yl]-3-phenylpropionic acid] the IC50 [1] was 28.5 µM and the IC50 [2] was over 100 µM.
`O=C(Nc1cc(-c2ccc(O)cc2)cn(C(Cc2ccc(Cl)cc2)C(=O)O)c1=O)c1ccc(C(F)(F)F)cc1` (stereo not shown) [Compound 29, 3-(4-Chlorophenyl)-2-[5-(4-hydroxyphenyl)-2-oxo-3-(4-trifluoromethyl-benzoylamino)-2H-pyridin-1-yl]propionic acid] showed an IC50 [1] of 31.8 µM and an IC50 [2] of over 100 µM.
`O=C(Nc1cc(-c2cccc3ccccc23)cn(C(Cc2ccc(Cl)cc2)C(=O)O)c1=O)c1ccc(C(F)(F)F)cc1` (stereo not shown) [Compound 19, 3-(4-Chlorophenyl)-2-[5-naphthalen-1-yl-2-oxo-3-(4-trifluoromethyl-benzoylamino)-2H -1-yl]propionic acid] gave an IC50 [1] of 5.5 µM and an IC50 [2] of over 100 µM.
With `O=C(Nc1cc(-c2cc3ccccc3s2)cn(C(Cc2ccc(Cl)cc2)C(=O)O)c1=O)c1ccc(C(F)(F)F)cc1` (stereo not shown) [Compound 26, 2-[5-Benzo[b]thiophen-2-yl-2-oxo-3-(4-trifluoromethylbenzoylamino)-2H-pyridin-1-yl]-3-(4-chlorophenyl)propionic acid] the IC50 [1] was 2.4 µM and the IC50 [2] was over 100 µM.
In the case of `O=C(Nc1cc(-c2ccc(Br)cc2)cn(C(Cc2ccc(Cl)cc2)C(=O)O)c1=O)c1ccc(-c2ccccc2)cc1` (stereo not shown) [Compound 37, 2-[3-[(Biphenyl-4-carbonyl)amino]-5-(4-bromophenyl)-2-oxo-2H-pyridin-1-yl]-3-(4-chlorophenyl)propionic acid], the IC50 [1] is reported as 1.5 µM and the IC50 [2] is reported as over 100 µM.
`O=C(Nc1cc(-c2ccc(Oc3ccccc3)cc2)cn(C(Cc2ccc(Cl)cc2)C(=O)O)c1=O)c1ccc(C(F)(F)F)cc1` (stereo not shown) [Compound 18, 3-(4-Chlorophenyl)-2-[2-oxo-5-(4-phenoxyphenyl)-3-(4-trifluoromethyl-benzoylamino)-2H-pyridin-1-yl]propionic acid] was tested, and the IC50 [1] was 2.3 µM and the IC50 [2] was over 100 µM.
`O=C(Nc1cc(-c2ccc(-c3ccccc3)cc2)cn([C@@H](Cc2ccccc2)C(=O)O)c1=O)c1ccc(C(F)(F)F)cc1` [Compound 2, (S)-2-[5-Biphenyl-4-yl-2-oxo-3-(4-trifluoromethylbenzoylamino)-2H-pyridin-1-yl]-3-phenylpropionic acid] gave an IC50 [1] of 9.3 µM and an IC50 [2] of over 100 µM.
`CC(C)Oc1ccc(-c2cc(NC(=O)c3ccc(C(F)(F)F)cc3)c(=O)n([C@@H](COCc3ccccc3)C(=O)O)c2)cc1` [Compound 12, (S)-3-Benzyloxy-2-[5-(4-isopropoxyphenyl)-2-oxo-3-(4-trifluoromethyl-benzoylamino)-2H-pyridin-1-yl]propionic acid] was tested, and the IC50 [1] was 67.2 µM and the IC50 [2] was over 100 µM.
